Data taken from ChEMBL document CHEMBL3045393, “Aryldiones incorporating a [1,4,5]oxadiazepane ring. Part I: Discovery of the novel cereal herbicide pinoxaden” (Bioorg Med Chem, 2009).
The source made the active and inactive calls. The rule behind the calls is not given here.

Legend:
Lolium perenne [1] = assay: Post-emergence herbicidal activity against Lolium perenne (perennial ryegrass) at 30 g a.i./ha measured after 21 days in presence of 1% Merge adjuvant; format: functional
Setaria faberi [2] = assay: Post-emergence herbicidal activity against Setaria faberi (Giant Foxtail) at 30 g a.i./ha measured after 21 days in presence of 1% Merge adjuvant; format: functional
Triticum aestivum [3] = assay: Phytotoxicity against Triticum aestivum cv. Remia (wheat) at 60 g a.i./ha applied post-emergence measured after 12 days in presence of cloquintocet-mexyl; format: functional
Avena fatua [4] = assay: Post-emergence herbicidal activity against Avena fatua at 30 g a.i./ha measured after 20 days in presence of cloquintocet-mexyl; format: functional
Triticum aestivum [5] = assay: Phytotoxicity against Triticum aestivum cv. Arina (wheat) at 60 g a.i./ha applied post-emergence measured after 12 days; format: functional
Triticum aestivum [6] = assay: Phytotoxicity against Triticum aestivum cv. Remia (wheat) at 60 g a.i./ha applied post-emergence measured after 12 days; format: functional
Hordeum vulgare [7] = assay: Phytotoxicity against Hordeum vulgare (barley) at 30 g a.i./ha applied post-emergence measured after 21 days in presence of 1% Merge adjuvant; format: organism-based; conditions: in vivo, other, 504 h
Hordeum vulgare [8] = assay: Phytotoxicity against Hordeum vulgare cv. Fanfare (barley) at 60 g a.i./ha applied post-emergence measured after 12 days; format: functional
Avena fatua [9] = assay: Post-emergence herbicidal activity against Avena fatua at 30 g a.i./ha measured after 20 days; format: functional
Hordeum vulgare [10] = assay: Phytotoxicity against Hordeum vulgare cv. Fanfare (barley) at 60 g a.i./ha applied post-emergence measured after 12 days in presence of cloquintocet-mexyl; format: functional
Alopecurus myosuroides [11] = assay: Post-emergence herbicidal activity against Alopecurus myosuroides at 30 g a.i./ha measured after 21 days in presence of 1% Merge adjuvant; format: functional
Lolium rigidum [12] = assay: Post-emergence herbicidal activity against Lolium rigidum at 30 g a.i./ha measured after 20 days in presence of cloquintocet-mexyl; format: functional
Triticum aestivum [13] = assay: Phytotoxicity against Triticum aestivum (wheat) at 30 g a.i./ha applied post-emergence measured after 21 days in presence of 1% Merge adjuvant; format: organism-based; conditions: in vivo, other, 504 h
Avena fatua [14] = assay: Post-emergence herbicidal activity against Avena fatua at 30 g a.i./ha measured after 21 days in presence of 1% Merge adjuvant; format: functional
[15] = Half life of hydrolysis at pH 7 at 50 degC; format: ADME; conditions: buffer
Triticum aestivum [16] = assay: Phytotoxicity against Triticum aestivum cv. Arina (wheat) at 60 g a.i./ha applied post-emergence measured after 12 days in presence of cloquintocet-mexyl; format: functional
Lolium rigidum [17] = assay: Post-emergence herbicidal activity against Lolium rigidum at 30 g a.i./ha measured after 20 days; format: functional
Apera spica-venti = assay: Herbicidal activity against Apera spica-venti at 125 g a.i./ha in presence of cloquintocet-mexyl; format: functional, organism-based
Avena fatua [18] = assay: Herbicidal activity against Avena fatua at > / = 250 g a.i./ha in presence of cloquintocet-mexyl; format: functional, organism-based
Avena fatua [19] = assay: Post-emergence herbicidal activity against Avena fatua at 2000 g a.i./ha after 21 days; format: functional
Lolium perenne [20] = assay: Post-emergence herbicidal activity against Lolium perenne (perennial ryegrass) at 500 g a.i./ha after 21 days; format: functional
Avena fatua [21] = assay: Post-emergence herbicidal activity against Avena fatua at 500 g a.i./ha after 21 days; format: functional
Setaria faberi [22] = assay: Post-emergence herbicidal activity against Setaria faberi (Giant Foxtail) at 500 g a.i./ha after 21 days; format: functional
Lolium perenne [23] = assay: Post-emergence herbicidal activity against Lolium perenne (perennial ryegrass) at 2000 g a.i./ha after 21 days; format: functional
Alopecurus myosuroides [24] = assay: Herbicidal activity against Alopecurus myosuroides at > / = 250 g a.i./ha in presence of cloquintocet-mexyl; format: functional, organism-based
Lolium multiflorum = assay: Herbicidal activity against Lolium multiflorum (Italian ryegrass) at 125 g a.i./ha in presence of cloquintocet-mexyl; format: functional, organism-based
Setaria faberi [25] = assay: Post-emergence herbicidal activity against Setaria faberi (Giant Foxtail) at 2000 g a.i./ha after 21 days; format: functional
Lolium perenne [26] = assay: Post-emergence herbicidal activity against Lolium perenne (perennial ryegrass) at 125 g a.i./ha measured after 21 days in presence of 0.2% X-77 adjuvant; format: functional
Avena fatua [27] = assay: Post-emergence herbicidal activity against Avena fatua at 125 g a.i./ha measured after 21 days in presence of 0.2% X-77 adjuvant; format: functional
Setaria faberi [28] = assay: Post-emergence herbicidal activity against Setaria faberi (Giant Foxtail) at 125 g a.i./ha measured after 21 days in presence of 0.2% X-77 adjuvant; format: functional
Alopecurus myosuroides [29] = assay: Post-emergence herbicidal activity against Alopecurus myosuroides at 125 g a.i./ha measured after 21 days in presence of 0.2% X-77 adjuvant; format: functional
Alopecurus myosuroides [30] = assay: Post-emergence herbicidal activity against Alopecurus myosuroides at 30 g a.i./ha measured after 21 days in presence of 0.2% X-77 adjuvant; format: functional
Hordeum vulgare [31] = assay: Phytotoxicity against Hordeum vulgare (barley) at 125 g a.i./ha applied post-emergence measured after 21 days in presence of 0.2% X-77 adjuvant; format: organism-based; conditions: in vivo, other, 504 h
Lolium perenne [32] = assay: Post-emergence herbicidal activity against Lolium perenne (perennial ryegrass) at 30 g a.i./ha measured after 21 days in presence of 0.2% X-77 adjuvant; format: functional
Avena fatua [33] = assay: Post-emergence herbicidal activity against Avena fatua at 30 g a.i./ha measured after 21 days in presence of 0.2% X-77 adjuvant; format: functional
Setaria faberi [34] = assay: Post-emergence herbicidal activity against Setaria faberi (Giant Foxtail) at 30 g a.i./ha measured after 21 days in presence of 0.2% X-77 adjuvant; format: functional
Triticum aestivum [35] = assay: Phytotoxicity against Triticum aestivum (wheat) at 125 g a.i./ha applied post-emergence measured after 21 days in presence of 0.2% X-77 adjuvant; format: organism-based; conditions: in vivo, other, 504 h
Triticum aestivum [36] = assay: Phytotoxicity against Triticum aestivum (wheat) at 30 g a.i./ha applied post-emergence measured after 21 days in presence of 0.2% X-77 adjuvant; format: organism-based; conditions: in vivo, other, 504 h
Hordeum vulgare [37] = assay: Phytotoxicity against Hordeum vulgare (barley) at 30 g a.i./ha applied post-emergence measured after 21 days in presence of 0.2% X-77 adjuvant; format: organism-based; conditions: in vivo, other, 504 h
Avena fatua [38] = assay: Post-emergence herbicidal activity against Avena fatua at 125 g a.i./ha measured after 21 days; format: functional
Lolium perenne [39] = assay: Post-emergence herbicidal activity against Lolium perenne (perennial ryegrass) at 125 g a.i./ha measured after 21 days; format: functional
Avena fatua [40] = assay: Post-emergence herbicidal activity against Avena fatua at 500 g a.i./ha measured after 15 days; format: functional
Alopecurus myosuroides [41] = assay: Post-emergence herbicidal activity against Alopecurus myosuroides at 125 g a.i./ha measured after 21 days; format: functional
Triticum aestivum [42] = assay: Phytotoxicity against Triticum aestivum (wheat) at 500 g a.i./ha applied post-emergence measured after 15 days; format: organism-based; conditions: in vivo, other, 360 h
Hordeum vulgare [43] = assay: Phytotoxicity against Hordeum vulgare (barley) at 500 g a.i./ha applied post-emergence measured after 15 days; format: organism-based; conditions: in vivo, other, 360 h
Alopecurus myosuroides [44] = assay: Post-emergence herbicidal activity against Alopecurus myosuroides at 500 g a.i./ha measured after 15 days; format: functional
Triticum aestivum [45] = assay: Phytotoxicity against Triticum aestivum (wheat) at 125 g a.i./ha applied post-emergence measured after 21 days; format: organism-based; conditions: in vivo, other, 504 h
Hordeum vulgare [46] = assay: Phytotoxicity against Hordeum vulgare (barley) at 125 g a.i./ha applied post-emergence measured after 21 days; format: organism-based; conditions: in vivo, other, 504 h
Lolium perenne [47] = assay: Post-emergence herbicidal activity against Lolium perenne (perennial ryegrass) at 500 g a.i./ha measured after 15 days; format: functional

CCc1cc(C)cc(CC)c1-c1c(OC(=O)C(C)(C)C)n2n(c1=O)CCOCC2 [PINOXADEN]
Activity (Lolium perenne [1]): 100%
Activity (Setaria faberi [2]): 90%
Activity (Triticum aestivum [3]): 0%
Activity (Avena fatua [4]): 90%
Activity (Triticum aestivum [5]): 30%
Activity (Triticum aestivum [6]): 30%
Activity (Hordeum vulgare [7]): 0%
Activity (Hordeum vulgare [8]): 20%
Activity (Avena fatua [9]): 90%
Activity (Hordeum vulgare [10]): 0%
Activity (Alopecurus myosuroides [11]): 100%
Activity (Lolium rigidum [12]): 95%
Activity (Triticum aestivum [13]): 10%
Activity (Avena fatua [14]): 100%
half-life [15]: 20.6 h
Activity (Triticum aestivum [16]): 0%
Activity (Lolium rigidum [17]): 90%

CCCCCCCS(=O)(=O)Oc1c(-c2c(CC)cc(C)cc2CC)c(=O)n2n1CCOCC2
Activity (Lolium perenne [1]): 100%
Activity (Setaria faberi [2]): 90%
Activity (Hordeum vulgare [7]): 0%
Activity (Alopecurus myosuroides [11]): 80%
Activity (Triticum aestivum [13]): 20%
Activity (Avena fatua [14]): 100%
half-life [15]: 3 h

Cc1cc(C)c(-c2c(OC(=O)C(C)(C)C)n3n(c2=O)CCOCC3)c(C)c1
Activity (Apera spica-venti): Active
Activity (Avena fatua [18]): Active
Activity (Avena fatua [19]): 100%
Activity (Lolium perenne [20]): 90%
Activity (Avena fatua [21]): 90%
Activity (Setaria faberi [22]): 90%
Activity (Lolium perenne [23]): 90%
Activity (Alopecurus myosuroides [24]): Active
Activity (Lolium multiflorum): Active
Activity (Setaria faberi [25]): 100%

CCc1cccc(CC)c1C1C(=O)N2CCCCN2C1=O
Activity (Lolium perenne [1]): 80%
Activity (Setaria faberi [2]): 90%
Activity (Lolium perenne [26]): 40%
Activity (Avena fatua [27]): 80%
Activity (Setaria faberi [28]): 40%
Activity (Hordeum vulgare [7]): 80%
Activity (Alopecurus myosuroides [29]): 60%
Activity (Alopecurus myosuroides [30]): 80%
Activity (Hordeum vulgare [31]): 0%
Activity (Lolium perenne [32]): 50%
Activity (Alopecurus myosuroides [11]): 100%
Activity (Avena fatua [33]): 90%
Activity (Triticum aestivum [13]): 80%
Activity (Setaria faberi [34]): 40%
Activity (Avena fatua [14]): 100%
Activity (Triticum aestivum [35]): 0%
Activity (Triticum aestivum [36]): 40%
Activity (Hordeum vulgare [37]): 10%

Cc1cc(C)c(C2C(=O)N3CCCCN3C2=O)c(C)c1 [CGA-271312]
Activity (Avena fatua [38]): 50%
Activity (Lolium perenne [39]): 40%
Activity (Avena fatua [40]): 90%
Activity (Alopecurus myosuroides [41]): 40%
Activity (Triticum aestivum [42]): 60%
Activity (Hordeum vulgare [43]): 90%
Activity (Alopecurus myosuroides [44]): 60%
Activity (Triticum aestivum [45]): 0%
Activity (Hordeum vulgare [46]): 40%
Activity (Lolium perenne [47]): 90%

CCc1cc(C)cc(CC)c1C1C(=O)N2CCOCCN2C1=O [PINOXADEN DIONE]
Activity (Lolium perenne [1]): 90%
Activity (Setaria faberi [2]): 90%
Activity (Triticum aestivum [3]): 0%
Activity (Avena fatua [4]): 90%
Activity (Triticum aestivum [5]): 20%
Activity (Triticum aestivum [6]): 50%
Activity (Hordeum vulgare [7]): 0%
Activity (Hordeum vulgare [8]): 40%
Activity (Avena fatua [9]): 90%
Activity (Hordeum vulgare [10]): 0%
Activity (Alopecurus myosuroides [11]): 100%
Activity (Lolium rigidum [12]): 90%
Activity (Triticum aestivum [13]): 10%
Activity (Avena fatua [14]): 100%
Activity (Triticum aestivum [16]): 0%
Activity (Lolium rigidum [17]): 90%
